Reference: ChEMBL document CHEMBL5291721, “A preclinical secondary pharmacology resource illuminates target-adverse drug reaction associations of marketed drugs” (Nat Commun, 2023)

Experiments:
[1] = target: T1, Thromboxane A2 receptor (Homo sapiens, UniProt P21731); format: functional
T1 sequence (P21731 whole entry): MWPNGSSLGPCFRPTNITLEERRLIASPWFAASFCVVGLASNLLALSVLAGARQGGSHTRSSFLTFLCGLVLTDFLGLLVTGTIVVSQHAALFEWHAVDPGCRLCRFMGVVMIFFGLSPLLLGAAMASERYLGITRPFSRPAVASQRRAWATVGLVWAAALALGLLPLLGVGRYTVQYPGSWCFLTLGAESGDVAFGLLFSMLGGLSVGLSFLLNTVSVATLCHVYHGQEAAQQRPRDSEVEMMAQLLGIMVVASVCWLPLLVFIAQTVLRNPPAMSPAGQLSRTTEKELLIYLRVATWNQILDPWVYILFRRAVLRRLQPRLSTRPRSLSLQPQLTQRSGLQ

[2] = target: T2, Estrogen receptor (Homo sapiens, UniProt P03372); format: functional
T2 sequence (P03372 whole entry): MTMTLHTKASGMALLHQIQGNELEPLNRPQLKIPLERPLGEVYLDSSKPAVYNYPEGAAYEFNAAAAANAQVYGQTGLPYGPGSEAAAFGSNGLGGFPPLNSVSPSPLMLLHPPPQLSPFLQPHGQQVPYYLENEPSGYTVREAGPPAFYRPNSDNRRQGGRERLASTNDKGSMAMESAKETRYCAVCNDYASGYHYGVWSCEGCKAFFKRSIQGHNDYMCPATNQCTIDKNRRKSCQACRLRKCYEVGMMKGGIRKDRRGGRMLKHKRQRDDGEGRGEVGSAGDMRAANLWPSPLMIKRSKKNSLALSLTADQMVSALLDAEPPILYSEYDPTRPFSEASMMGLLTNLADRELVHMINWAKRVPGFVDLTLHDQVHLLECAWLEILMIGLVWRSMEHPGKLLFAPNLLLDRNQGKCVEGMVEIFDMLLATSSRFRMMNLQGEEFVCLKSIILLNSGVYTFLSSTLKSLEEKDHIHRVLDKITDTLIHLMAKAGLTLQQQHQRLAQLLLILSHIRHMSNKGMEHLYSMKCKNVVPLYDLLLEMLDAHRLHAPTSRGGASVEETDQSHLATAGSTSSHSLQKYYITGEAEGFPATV

[3] = target: T1, Thromboxane A2 receptor; format: functional, cell-based
[4] = target: Hydroxycarboxylic acid receptor 2 (Homo sapiens, UniProt Q8TDS4)
Chain of Hydroxycarboxylic acid receptor 2 (Q8TDS4 whole entry): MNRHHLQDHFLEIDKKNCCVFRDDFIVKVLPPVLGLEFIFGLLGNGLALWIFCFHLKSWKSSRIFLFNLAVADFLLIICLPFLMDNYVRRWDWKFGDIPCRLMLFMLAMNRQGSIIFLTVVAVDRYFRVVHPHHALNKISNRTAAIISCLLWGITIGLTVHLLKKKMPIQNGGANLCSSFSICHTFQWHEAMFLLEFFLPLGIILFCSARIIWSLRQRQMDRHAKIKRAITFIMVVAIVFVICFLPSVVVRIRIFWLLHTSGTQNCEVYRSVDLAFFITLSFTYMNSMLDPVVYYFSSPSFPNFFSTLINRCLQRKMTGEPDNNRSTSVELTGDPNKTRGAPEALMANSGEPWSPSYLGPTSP
Note: assay procedure not described here.

Compound `CO/N=C(\C(=O)N[C@@H]1C(=O)N2C(C(=O)[O-])=C(C[N+]3(C)CCCC3)CS[C@H]12)c1csc(N)n1` has an AC50 [1] greater than 300 µM, an AC50 [2] of 54 µM and an AC50 [3] greater than 300 µM.

`Oc1ncnc2[nH]ncc12` [ALLOPURINOL] was tested, and the AC50 [4] was greater than 10 µM, the AC50 [1] was greater than 30 µM and the AC50 [3] was greater than 30 µM.

`CC(C)NNC(=O)c1ccncc1` [IPRONIAZID] showed an AC50 [1] greater than 30 µM, an AC50 [2] greater than 30 µM and an AC50 [3] greater than 30 µM.
